Tests used:
Format in all cases: physicochemical
[1] = Compatibility of surfactants in seawater; design: key: A = clear; B = phase separation; conditions: in seawater (total salinity 57,670 ppm)
Source text: (§1) The properties of the surfactants in seawater including compatibility, critical micelle concentration (CMC) and the interfacial tension were investigated.

[2] = Critical micelle concentration (CMC) in seawater
Source text: as §1

[3] = Interfacial tension (IFT) of surfactants in seawater; conditions: for IFT 500 mg/L: surfactant 500 mg/L; for IFT 1000 mg/L: surfactant 1000 mg/L; for IFT 2000 mg/L: surfactant 2000 mg/L
Source text: as §1

Structure (SMILES) | Compatibility 25° C. [1] | Compatibility 95° C. [1] | CMC [2] | IFT 500 mg/L [3] | IFT 1000 mg/L [3] | IFT 2000 mg/L [3]
CCCCCCCC/C=C\CCCCCCCCCCCC(=O)NCCC[N+](C)(C)CC(O)COC(=O)CC.[Cl-] (stereo not drawn) [C22APHPAC, Erucyl amidopropyl-2-hydroxy-3-propoionyloxy propyl ammonium chloride] | A | B | 1.25e-05 mol/L | 5.7 × 10^−2 mN/m | 7 × 10^−3 mN/m | 4.2 × 10^−2 mN/m
CCCCCCCC/C=C\CCCCCCCCCCCC(=O)NCCC[N+](C)(C)CC(O)COC(C)=O.[Cl-] (stereo not drawn) [C22APHAAC, erucyl amidopropyl-2-hydroxy-3-acetoxypropyl ammonium chloride] | A | B | 1.09e-05 mol/L | 1.11 mN/m | 4.83 × 10^−3 mN/m | 2.37 × 10^−3 mN/m
CCCCCCCC/C=C\CCCCCCCCCCCC(=O)NCCC[N+](C)(C)CC(O)COC(=O)C(F)(F)F.[Cl-] (stereo not drawn) [C22APHFAC, Erucyl amidopropyl-2-hydroxy-3-(2,2,2 trifluoroacetoxy) propyl ammonium chloride] | A | B | 1.08e-05 mol/L | 0.31 mN/m | 1.87 × 10^−2 mN/m | 7.12 × 10^−3 mN/m
CCCCCCCC/C=C\CCCCCCCCCCCC(=O)NCCC[N+](C)(C)CC(O)CO.[Cl-] (stereo not drawn) [C22APDAC, Erucyl amidopropyl-2,3-dihydroxypropyl ammonium chloride] | A | A | 9.58e-06 mol/L | 2.11 × 10^−4 mN/m | 1.21 × 10^−4 mN/m | 1.1 × 10^−3 mN/m
